{"source": "patent US20110152379A1", "about": "“COMPOSITION FOR CONTROL OF AGING AND/OR EXTENSION OF LIFE, CONTAINING DAPSONE AS ACTIVE INGREDIENT” (priority 2008, published 2011)", "key": {"Escherichia coli OP50": {"system": "Escherichia coli OP50", "assay": "Growth of OP50 bacteria with PABA and DDS", "assay_type": "cell-based", "settings": "PABA 10 uM added with DDS; FIG. 1", "procedure": "FIG. 1 is a graph showing the growth degree of bacteria by treating with PABA. […] In order to identify the effect of dapsone on the extending of lifespan, the experiment was performed in the following order. At this time, since dapsone is not a water-soluble material, E. coli was cultured in the medium including dapsone and then was used as a feed for C. elegans. […] The administration of dapsone was started after L4 stage that almost finishes the generation, and the experiment was performed as follows under the condition of 20° C. in order to provide the optimal growth environment: […]"}, "[1]": {"system": "membrane potential of mitochondria", "assay": "Membrane potential of mitochondria, DiOC6 assay", "assay_type": "cell-based, human", "procedure": "The protein amount of mitochondria constituent complex was measured by using Western Blot using Complex I (20 kDa ND6 subunit), Complex II (30 kDa FeS, non-heme iron protein, SDHB), Complex III (47 kDa core protein 2), Complex IV (18 kDa subunit IV), Complex V (55 kDa subunit a ATP synthase), and the like. […] The membrane potential (Δψm) of mitochondria used DiOC6. […] Since then, the above fibroblast was treated with 40 nM of DiOC6 for 15 minutes. The results were measured by using Cary Eclipse Fluorescence Spectrophotometer (Varian, Calif., USA) and the excitation wavelength and emission wavelength were measured at 480 nm and 520 nm, respectively.\nThe change of membrane potential (Δψm) of mitochondria was measured by using a cationic dye, DiOC6 that is a specific fluorescent material for mitochondria. An aspect of the change was measured by using Fluorescence Spectrophotometer. The cell was cultured in 40 nM DiQC6 for 15 minutes and then the fluorescent material that was left was removed by using PBS. The analysis was performed by using Cary Eclipse fluorescence spectrophotometer (Varian, Calif., USA), and then the excitation wavelength was measured at 480 nm, and the emission wavelength was measured at 520 nm."}, "human diploid fibroblast": {"system": "human diploid fibroblast", "assay": "Survival rate of human diploid fibroblast treated with PQ (CCK-8)", "settings": "1 mM PQ for 48 hours without any pretreatments", "procedure": "The above cell was cultured by adding Cell Counting Kit-8 for 48 hours and then the survival ability of cell was measured. In addition, DPI (5 uM) was pretreated for 30 minutes and NAC (2 mM) was pretreated for 3 hours, and then 1 mM of PQ was treated as a positive control.\nThe evaluation of survival rate of cell was performed by using Counting Kit (CCK-8) from Dojindo Laboratory Company (Japan). The human diploid fibroblast was cultured at 96-well plate for 24 hours before treating. […] The absorbance was measured at 450 nm."}, "[2]": {"system": "mitochondria superoxide anion", "assay": "Superoxide anion in mitochondria, MitoSOX Red", "assay_type": "cell-based", "settings": "human diploid fibroblast; 1 mM PQ 30 minutes; FIG. 24B", "procedure": "(§1) The cell was treated with 1 mM of PQ for 30 minutes, and then was cultured at 37° C. for 15 minutes after adding oxidant-sensitive fluorescent dyes (A) DHE (5 uM, cytosol specific) and (B) MitoSOX (5 uM, mitochondria specific), respectively. For identifying the change of fluorescence, the excitation and emission wavelength of DHE were measured at 515 and 590 nm and MitoSOX was measured at 520 and 580 nm by using a multiwell plate reader. The results were indicated by calculating the results of three experiments as a control rate (%). The statistical significant was expressed as *, # p<0.005; ** p<0.05.\nMitochondria superoxide anion was measured by using the fluorescence material, i.e., MitoSOX Red. […] The cell was twice washed with DPBS and the fluorescence was immediately measured at excitation wavelength 515 nm and emission wavelength 590 nm by using CEFS [Cary Eclipse fluorescence spectrophotometer (Varian, Calif., USA)] machine."}, "mitochondria": {"system": "mitochondria", "assay": "Mitochondria structure staining with MitoTracker Red", "assay_type": "cell-based, human", "settings": "pretreated with DDS or DPI, then 1 mM PQ 24 hours; FIG. 30", "procedure": "The first photograph indicates the stained mitochondria of the non-treated human diploid fibroblast as a control, the second photograph indicates the stained mitochondria of the PQ-treated human diploid fibroblast, the third photograph indicates the stained mitochondria of the human diploid fibroblast that was pretreated with DDS and then was treated with PQ, and the final photograph indicates the stained mitochondria of the human diploid fibroblast that was treated with DPI and PQ together (by using Confocal process). The values of (A, B, C and D: ×4000) is means±SEM (n=3), # is p<0.005 relative CC; and * is p<0.005 relative C.\nThe human diploid fibroblasts were cultured at 24-well plate. After the above experiment materials, i.e., the human diploid fibroblasts, were pretreated and then were treated with PQ for 24 hours, the above cells were treated with MitoTracker Red CMXRos (50 nM), which is a staining material for mitochondria, at 37° C. for 30 minutes. The dye is a marker of function for marking mitochondria through marking a transmembrane potential of mitochondria in a cell. After culturing, the cells were washed with PBS and then fixed with 4% of paraformaldehyde at 4° C. for overnight. […] After washing, the cells were covered with a cover glass and visualized through a fluorescence microscope."}, "[3]": {"system": "cytosolic superoxide anion", "assay": "Superoxide anion in cell (cytoplasm), DHE", "assay_type": "cell-based", "settings": "human diploid fibroblast; 1 mM PQ 30 minutes; FIG. 24A", "procedure": "as §1\nThe cell was twice washed with DPBS and Ethidium-DNA that fluoresces was immediately measured at excitation wavelength 515 nm and emission wavelength 590 nm by using Cary Eclipse fluorescence spectrophotometer (Varian, Calif., USA) machine."}, "[4]": {"assay": "DPPH radical scavenging activity in cell-free system", "assay_type": "biochemical", "settings": "0.1-100 uM; 200 uM DPPH; FIG. 25A", "procedure": "The radical scavenging activity was measured as the reducing power of\nDPPH included in methanol. […] DPPH is a stable free radical, has a thick purple color, and its absorbance is at 517 nm. However, if it reacts with an antioxidant, it has a pale yellow color. The reaction mixture was maintained for 30 minutes at a room temperature without light and then the absorbance was measured at 517 nm. The free radical scavenging activity was calculated as the suppression rate by using the following equation:\n% suppression=[(Absorbance of Control−Absorbance of Sample)/Control Absorbance]×100."}}, "data": [{"smiles": "Nc1ccc(C(=O)O)cc1", "note": "[PABA, para-aminobenzoic acid]", "values": [{"measurement": "growth rate of bacteria relative to control", "setting": "Escherichia coli OP50", "value": 80, "unit": "%"}]}, {"smiles": "C[n+]1ccc(-c2cc[n+](C)cc2)cc1", "note": "[PQ, paraquat]", "values": [{"measurement": "membrane potential of mitochondria compared with the control", "setting": "[1]; human diploid fibroblast, 1 mM PQ for 24 hours", "value": 76.8, "unit": "%"}, {"measurement": "viability of human diploid fibroblast compared with the non-treated control", "setting": "human diploid fibroblast", "value": "about 58.8%"}]}, {"smiles": "c1ccc2c(c1)[I+]c1ccccc1-2", "note": "[DPI]", "values": [{"measurement": "production of superoxide anion in the mitochondria", "setting": "[2]", "value": "suppress"}, {"measurement": "shape of mitochondria after PQ (MitoTracker)", "setting": "mitochondria", "value": "recovered, partially"}, {"measurement": "decrease of membrane potential induced by PQ", "setting": "[1]; pretreated with DDS (3 hours) or DPI (30 minutes), then 1 mM PQ 24 hours, FIG. 29B", "value": "meaningfully maintained"}, {"measurement": "superoxide anion of cytoplasm produced by PQ (DHE assay)", "setting": "[3]", "value": "suppressed"}]}, {"smiles": "Cc1c(C)c2c(c(C)c1O)CCC(C)(C(=O)O)O2", "note": "(stereo not shown) [Trolox]", "values": [{"measurement": "activity of removing ROS on DPPH in the test tube", "setting": "[4]", "value": "strong activity of removing ROS"}]}, {"smiles": "CC(=O)N[C@@H](CS)C(=O)O", "note": "[NAC, N-acetyl-L-cystein]", "values": [{"measurement": "production of superoxide anion in the mitochondria", "setting": "[2]", "value": "suppress"}, {"measurement": "superoxide anion of cytoplasm produced by PQ (DHE assay)", "setting": "[3]", "value": "suppressed"}]}]}
